Test results published in ChEMBL document CHEMBL3885881, “DrugMatrix”.

Species: Rattus norvegicus
Test: DrugMatrix - Regimen: Daily Repeat
Assay type: toxicity, organism-based, Sprague-Dawley
Parameters: regimen Daily Repeat, gender Male, age 6-8 weeks
Conditions: in vivo, po, route oral GAVAGE, vehicle .5 % CMC; for ABSOLUTE BASOPHIL / ABSOLUTE EOSINOPHIL / ABSOLUTE LYMPHOCYTE / ABSOLUTE MONOCYTE / ABSOLUTE SEGMENTED NEUTROPHIL / BASOPHIL / EOSINOPHIL / ERYTHROCYTE COUNT / HEMATOCRIT / HEMOGLOBIN / LEUKOCYTE COUNT / LYMPHOCYTE / MEAN CORPUSCULAR HEMOGLOBIN / MEAN CORPUSCULAR HEMOGLOBIN CONCENTRATION / MEAN CORPUSCULAR VOLUME / MONOCYTE / NEUTROPHIL / NUCLEATED RED BLOOD CELLS / PLATELET COUNT: tissue Blood; for ALANINE AMINOTRANSFERASE / ALBUMIN / ALKALINE PHOSPHATASE / ASPARTATE AMINOTRANSFERASE / BLOOD UREA NITROGEN / CARBON DIOXIDE / CHLORIDE / CHOLESTEROL / CREATINE PHOSPHOKINASE / CREATININE / GLUCOSE / LACTATE DEHYDROGENASE / LIPASE / PHOSPHORUS / POTASSIUM / SODIUM / TOTAL BILIRUBIN / TOTAL PROTEIN / URIC ACID: tissue Plasma
[1] = 5 mg/kg, 72 h, dose level Low, time 3 day
[2] = 5 mg/kg, 120 h, dose level Low, time 5 day
[3] = 26 mg/kg, 72 h, dose level High, time 3 day
[4] = 26 mg/kg, 120 h, dose level High, time 5 day

## Nc1nnc(-c2cccc(Cl)c2Cl)c(N)n1 [LAMOTRIGINE]
[1]
  ABSOLUTE BASOPHIL: 0 CELLS/uL
  ABSOLUTE EOSINOPHIL: 0 CELLS/uL
  ABSOLUTE LYMPHOCYTE: 10899.33 CELLS/uL
  ABSOLUTE MONOCYTE: 45.33 CELLS/uL
  ABSOLUTE SEGMENTED NEUTROPHIL: 922 CELLS/uL
  BASOPHIL: 0%
  EOSINOPHIL: 0%
  ERYTHROCYTE COUNT: 5.73 x10E6/uL
  HEMATOCRIT: 35.93%
  HEMOGLOBIN: 13.53 G/DL
  LEUKOCYTE COUNT: 11.87 x10E3/uL
  LYMPHOCYTE: 91.67%
  MEAN CORPUSCULAR HEMOGLOBIN: 23.7 pg
  MEAN CORPUSCULAR HEMOGLOBIN CONCENTRATION: 37.7 G/DL
  MEAN CORPUSCULAR VOLUME: 62.83 fL
  MONOCYTE: 0.33%
  NEUTROPHIL: 8%
  NUCLEATED RED BLOOD CELLS: 0.33 /100WBC
  PLATELET COUNT: 1386.33 x10E3/uL
  ALANINE AMINOTRANSFERASE: 59 u/L
  ALBUMIN: 4.23 G/DL
  ALKALINE PHOSPHATASE: 377.33 u/L
  ASPARTATE AMINOTRANSFERASE: 90.67 u/L
  BLOOD UREA NITROGEN: 15 mg/dL
  CARBON DIOXIDE: 25.67 mmol/L
  CHLORIDE: 103.33 MEQ/L
  CHOLESTEROL: 73.33 mg/dL
  CREATINE PHOSPHOKINASE: 322.33 u/L
  CREATININE: 0.43 mg/dL
  GLUCOSE: 152 mg/dL
  LACTATE DEHYDROGENASE: 339.67 u/L
  LIPASE: 10.33 u/L
  PHOSPHORUS: 13.67 mg/dL
  POTASSIUM: 6.72 MEQ/L
  SODIUM: 145.9 MEQ/L
  TOTAL BILIRUBIN: 0.2 mg/dL
  TOTAL PROTEIN: 5.77 G/DL
  URIC ACID: 1.6 mg/dL
[2]
  ABSOLUTE BASOPHIL: 0 CELLS/uL
  ABSOLUTE EOSINOPHIL: 56.33 CELLS/uL
  ABSOLUTE LYMPHOCYTE: 12053 CELLS/uL
  ABSOLUTE MONOCYTE: 415 CELLS/uL
  ABSOLUTE SEGMENTED NEUTROPHIL: 1309 CELLS/uL
  BASOPHIL: 0%
  EOSINOPHIL: 0.33%
  ERYTHROCYTE COUNT: 5.33 x10E6/uL
  HEMATOCRIT: 35.73%
  HEMOGLOBIN: 13.3 G/DL
  LEUKOCYTE COUNT: 13.83 x10E3/uL
  LYMPHOCYTE: 87%
  MEAN CORPUSCULAR HEMOGLOBIN: 25 pg
  MEAN CORPUSCULAR HEMOGLOBIN CONCENTRATION: 37.23 G/DL
  MEAN CORPUSCULAR VOLUME: 67.17 fL
  MONOCYTE: 3%
  NEUTROPHIL: 9.67%
  NUCLEATED RED BLOOD CELLS: 0 /100WBC
  PLATELET COUNT: 1207 x10E3/uL
  ALANINE AMINOTRANSFERASE: 54.33 u/L
  ALBUMIN: 4.4 G/DL
  ALKALINE PHOSPHATASE: 422.67 u/L
  ASPARTATE AMINOTRANSFERASE: 86.33 u/L
  BLOOD UREA NITROGEN: 16.67 mg/dL
  CARBON DIOXIDE: 23 mmol/L
  CHLORIDE: 104 MEQ/L
  CHOLESTEROL: 71.67 mg/dL
  CREATINE PHOSPHOKINASE: 218.33 u/L
  CREATININE: 0.41 mg/dL
  GLUCOSE: 152.67 mg/dL
  LACTATE DEHYDROGENASE: 99.67 u/L
  LIPASE: 10.33 u/L
  PHOSPHORUS: 12.27 mg/dL
  POTASSIUM: 6.44 MEQ/L
  SODIUM: 149.03 MEQ/L
  TOTAL BILIRUBIN: 0.17 mg/dL
  TOTAL PROTEIN: 6.17 G/DL
  URIC ACID: 1.8 mg/dL
[3]
  ABSOLUTE BASOPHIL: 0 CELLS/uL
  ABSOLUTE EOSINOPHIL: 0 CELLS/uL
  ABSOLUTE LYMPHOCYTE: 13769 CELLS/uL
  ABSOLUTE MONOCYTE: 39.33 CELLS/uL
  ABSOLUTE SEGMENTED NEUTROPHIL: 558.33 CELLS/uL
  BASOPHIL: 0%
  EOSINOPHIL: 0%
  ERYTHROCYTE COUNT: 5.86 x10E6/uL
  HEMATOCRIT: 39.23%
  HEMOGLOBIN: 14.47 G/DL
  LEUKOCYTE COUNT: 14.37 x10E3/uL
  LYMPHOCYTE: 95.67%
  MEAN CORPUSCULAR HEMOGLOBIN: 24.67 pg
  MEAN CORPUSCULAR HEMOGLOBIN CONCENTRATION: 36.9 G/DL
  MEAN CORPUSCULAR VOLUME: 66.93 fL
  MONOCYTE: 0.33%
  NEUTROPHIL: 4%
  NUCLEATED RED BLOOD CELLS: 0.33 /100WBC
  PLATELET COUNT: 1200 x10E3/uL
  ALANINE AMINOTRANSFERASE: 73 u/L
  ALBUMIN: 4.6 G/DL
  ALKALINE PHOSPHATASE: 355.33 u/L
  ASPARTATE AMINOTRANSFERASE: 139.67 u/L
  BLOOD UREA NITROGEN: 13 mg/dL
  CARBON DIOXIDE: 24.67 mmol/L
  CHLORIDE: 102 MEQ/L
  CHOLESTEROL: 91 mg/dL
  CREATINE PHOSPHOKINASE: 1448.33 u/L
  CREATININE: 0.29 mg/dL
  GLUCOSE: 138 mg/dL
  LACTATE DEHYDROGENASE: 373.67 u/L
  LIPASE: 10.33 u/L
  PHOSPHORUS: 13.67 mg/dL
  POTASSIUM: 7.33 MEQ/L
  SODIUM: 146.47 MEQ/L
  TOTAL BILIRUBIN: 0.2 mg/dL
  TOTAL PROTEIN: 6.5 G/DL
  URIC ACID: 3 mg/dL
[4]
  ABSOLUTE BASOPHIL: 0 CELLS/uL
  ABSOLUTE EOSINOPHIL: 0 CELLS/uL
  ABSOLUTE LYMPHOCYTE: 13660 CELLS/uL
  ABSOLUTE MONOCYTE: 181.67 CELLS/uL
  ABSOLUTE SEGMENTED NEUTROPHIL: 558.33 CELLS/uL
  BASOPHIL: 0%
  EOSINOPHIL: 0%
  ERYTHROCYTE COUNT: 5.81 x10E6/uL
  HEMATOCRIT: 37.13%
  HEMOGLOBIN: 14.03 G/DL
  LEUKOCYTE COUNT: 14.4 x10E3/uL
  LYMPHOCYTE: 95%
  MEAN CORPUSCULAR HEMOGLOBIN: 24.17 pg
  MEAN CORPUSCULAR HEMOGLOBIN CONCENTRATION: 37.8 G/DL
  MEAN CORPUSCULAR VOLUME: 63.93 fL
  MONOCYTE: 1.33%
  NEUTROPHIL: 3.67%
  NUCLEATED RED BLOOD CELLS: 0.33 /100WBC
  PLATELET COUNT: 1279.33 x10E3/uL
  ALANINE AMINOTRANSFERASE: 64.67 u/L
  ALBUMIN: 4.4 G/DL
  ALKALINE PHOSPHATASE: 331.33 u/L
  ASPARTATE AMINOTRANSFERASE: 78 u/L
  BLOOD UREA NITROGEN: 18.67 mg/dL
  CARBON DIOXIDE: 27.67 mmol/L
  CHLORIDE: 103 MEQ/L
  CHOLESTEROL: 75.67 mg/dL
  CREATINE PHOSPHOKINASE: 225 u/L
  CREATININE: 0.28 mg/dL
  GLUCOSE: 163 mg/dL
  LACTATE DEHYDROGENASE: 110.33 u/L
  LIPASE: 10.67 u/L
  PHOSPHORUS: 12.43 mg/dL
  POTASSIUM: 7.41 MEQ/L
  SODIUM: 147.97 MEQ/L
  TOTAL BILIRUBIN: 0.2 mg/dL
  TOTAL PROTEIN: 6.2 G/DL
  URIC ACID: 2.03 mg/dL
